Results published in patent US12692232B2, “Indole carboxamide compound, preparation therefor and use thereof” (NANJING RUISHUNING MEDICAL TECHNOLOGY CO., LTD., priority 2021, dated 2026).

Legend:
[1] = tested on: mouse model of renal fibrosis (UUO); test: Mouse model of renal fibrosis (unilateral ureteral obstruction, UUO); type: in vivo; settings: for urea nitrogen level: model 17.56±0.48; for serum creatinine level: model 32.48±0.87; for urine protein level: model 888.5±264.8; for extent of renal fibrosis, pathological staining (H&E, Masson, Sirius red): FIG. 2, control compound 25 mg/kg, losartan 50 mg/kg; for body weight compared with the UUO model group / kidney weight compared with the UUO model group: gavage once daily 14 days, not statistically different (P>0.05)
Method: The therapeutic effect of the compounds of the present invention (as exemplified by Compound 1-1 obtained in Example 1) on renal fibrosis was determined using a mouse model of renal fibrosis. The method was as follows:
Grouping of animals: male C57BL/6J mice aged 8 weeks were given adaptive feeding for 3 days and grouped into a sham operation group, a sham operation-treatment group, a Unilateral ureteral obstruction (UUO) model group, a low-dose (10 mg/kg) treatment group, a medium-dose (25 mg/kg) treatment group, a high-dose (50 mg/kg) treatment group, a medium-dose (25 mg/kg) treatment group of indole analogue 3-[(1-methyl-1H-indole-2-carbonyl)amino]propionic acid disclosed in CN2019107285315, and a positive control group of losartan (50 mg/kg), with 10 animals in each group. Mice in the model and the treatment groups were anesthetized by intraperitoneal injection of 0.5% sodium pentobarbital at a dose of 0.1 mL/10 g. The mice were fixed on the operating table and cut open in layers from the right side of the mid-abdomen to locate the left kidney, and the ends of the ureter were ligated, while the ureter was cut off between the two ligations; the sham operation group was operated as described above and the ligations were not performed. Post-operative organs were repositioned, sutured, and sterilized with iodophor after suturing was completed. Immediately after operation, the drug was administered by gavage once daily for 14 days. Urine sample collection: animals were placed in separate metabolic cages by group on days 0, 5, 10 and 14 after modelling, without food or water, and urine samples were collected from each group of mice.
The protein levels in urine were determined using Coomassie brilliant blue (CBB) method by using urine protein quantitative test kit (Nanjing Jiancheng Bioengineering Institute). CBB working solution was prepared according to the kit instructions. 0.05 mL of each urine sample was mixed with 3 mL of CBB working solution, the mixture was left to stand for 5 min, and the absorbance value of each sample was determined at 595 nm. The protein levels in each group of urine samples were calculated according to the protein standardization formula: urine protein levels (mg/L)=(measured OD−blank OD)/(standard OD−blank OD)×563 mg/L.
Collection of serum sample: orbital blood from each mouse was collected in an EP tube, placed at 37° C. for 20 minutes, and centrifuged to obtain the upper layer of serum.
Collection of plasma sample: orbital blood from each mouse was collected in an anticoagulation tube, mixed well and stored at 4° C. for later use.
Determination of creatinine levels in urine and serum by the picric acid colorimetric method: creatinine levels in urine and serum were determined by using the creatinine test kit (Nanjing Jiancheng Bioengineering Institute). According to the kit instructions, 1.5 mL of urine sample or serum sample and 0.5 mL of picric acid solution, 0.5 mL of 0.5 mol/L sodium hydroxide solution were mixed, heated in water bath at 37° C. for 10 minutes. The absorbance value of each sample was determined using a UV spectrophotometer at a wavelength of 510 nm. Creatinine levels in samples of each group were calculated according to the formula: creatinine level (μmol/L) in serum or urine=(measured OD value−blank OD value)/(standard OD value−blank OD value)×50 μmol/L×(dilution ratio 201).
Determination of urea nitrogen level in plasma by diacetyl monoxime method: urea nitrogen level was determined was determined by using blood urea nitrogen (BUN) test kit (Nanjing Jiancheng Bioengineering Institute). According to the kit instructions, 0.05 mL of anticoagulated plasma samples were mixed with 1 mL of oxime solution and 1 mL of acid working solution, and the mixtures were placed in a boiling water bath for 15 min. A UV-visible spectrophotometer was used to determine the absorbance values of each tube at a wavelength of 520 nm. […]

[2] = tested on: H22 liver subcutaneous transplanted tumor; test: Mouse model of H22 liver subcutaneous transplanted tumor; type: in vivo
Method: The method was as follows:
Experimental procedure: H22 hepatoma cell suspension was adjusted to 1×10^7/mL after dilution and counting with normal saline, and 0.2 mL per mouse was inoculated on the back of the mice. After 24 hours, the mice were weighed and administered drug at a dose of 0.1 mL/10 g once a day, wherein the mice in the solvent control group and the treatment groups were administered 0.9% sodium chloride solution and the compound of the present invention, respectively, for 14 days, and the mice in the CTX group were injected intraperitoneally for 14 days. The mice were weighed after 14 days. The animals were executed and the tumor blocks were removed and weighed separately. The tumor inhibition rate was calculated according to the following formula: tumor inhibition rate (%)=(1−average tumor weight in a treatment group/average tumor weight in the solvent control group)×100%.

Compound	creatinine level reduced compared with the model group ([1]; 25 mg/kg gavage 14 days) [%]	urea nitrogen level reduced compared with the model group ([1]; 25 mg/kg gavage 14 days) [%]	urine protein level reduced compared with the model group ([1]; 25 mg/kg gavage 14 days) [%]	urea nitrogen level ([1]; 25 mg/kg gavage 14 days) [mmol/L]	serum creatinine level ([1]; 25 mg/kg gavage 14 days) [µmol/L]	urine protein level ([1]; 25 mg/kg gavage 14 days) [mg/L]	extent of renal fibrosis, pathological staining (H&E, Masson, Sirius red) [1]	body weight compared with the UUO model group [1]	kidney weight compared with the UUO model group [1]	tumor inhibition rate ([2]; 25 mg/kg once a day 14 days) [%]	other results
Cn1c(C(=O)NCCC(=O)O)cc2ccccc21 [3-[(1-methyl-1H-indole-2-carbonyl)amino]propionic acid, reference compound]	18.3	20.6	30.1	13.94 ± 0.42	26.52 ± 0.86	621 ± 81.3	shows less improvement in fibrotic tissue proliferation and renal tubular lumen dilation	slight increase in body weight	slight decrease in kidney weight	52.8	–
CC(=O)OCCCNC(=O)c1c(C=O)c2ccccc2n1C [compound 1-1, propyl 3-[(3-formyl-1-methyl-1H-indole-2-carbonyl)amino]acetate]	20.7	30.0	37.7	12.30 ± 0.33	25.76 ± 1.31	554 ± 143	significantly attenuates tubular lumen dilatation and glomerular atrophy in a dose-dependent manner	slight increase in body weight	slight decrease in kidney weight	60.5	creatinine level reduced compared with the model group ([1]; 10 mg/kg gavage 14 days): 17.2%; urea nitrogen level reduced compared with the model group ([1]; 10 mg/kg gavage 14 days): 24.7%; urine protein level reduced compared with the model group ([1]; 10 mg/kg gavage 14 days): 27.4%; urea nitrogen level ([1]; 10 mg/kg gavage 14 days): 13.23 ± 0.62 mmol/L; serum creatinine level ([1]; 10 mg/kg gavage 14 days): 26.88 ± 0.86 µmol/L; urine protein level ([1]; 10 mg/kg gavage 14 days): 645 ± 165 mg/L; creatinine level reduced compared with the model group ([1]; 50 mg/kg gavage 14 days): 27.6%; urea nitrogen level reduced compared with the model group ([1]; 50 mg/kg gavage 14 days): 37.7%; urine protein level reduced compared with the model group ([1]; 50 mg/kg gavage 14 days): 52.6%; urea nitrogen level ([1]; 50 mg/kg gavage 14 days): 10.94 ± 0.42 mmol/L; serum creatinine level ([1]; 50 mg/kg gavage 14 days): 23.52 ± 0.86 µmol/L; urine protein level ([1]; 50 mg/kg gavage 14 days): 421 ± 82.3 mg/L; tumor inhibition rate ([2]; 50 mg/kg once a day 14 days): 69.4%
